According to ChEMBL document CHEMBL5723582, “Data for DCP probe T-10430” (2024):

Assays:
[1] = target: Pituitary adenylate cyclase-activating polypeptide type I receptor (Homo sapiens) (UniProt P41586); test: RLU of ADCYAP1R1 at 1.0 µM in the […] PRESTO-Tango GPCRome screen; conditions: Compound concentration 1.0 uM
[2] = target: Hydroxycarboxylic acid receptor 2 (Homo sapiens) (UniProt Q8TDS4); test: RLU of HCA2 at 1.0 µM in the Aequorin PRESTO-Tango GPCRome screen; conditions: Compound concentration 1.0 uM
[3] = target: Alpha-2C adrenergic receptor (Homo sapiens) (UniProt P18825); test: RLU of ADRA2C at 1.0 µM in the […] PRESTO-Tango GPCRome screen; conditions: Compound concentration 1.0 uM
[4] = target: Free fatty acid receptor 2 (Homo sapiens) (UniProt O15552); test: RLU of FFA2 (GPR43) at 1.0 µM in the […] PRESTO-Tango GPCRome screen; conditions: Compound concentration 1.0 uM
[5] = target: 5-hydroxytryptamine receptor 1F (Homo sapiens) (UniProt P30939); test: RLU of HTR1F at 1.0 µM in the […] PRESTO-Tango GPCRome screen; conditions: Compound concentration 1.0 uM
[6] = target: Neuromedin-B receptor (Homo sapiens) (UniProt P28336); test: RLU of NMBR at 1.0 µM in the […] PRESTO-Tango GPCRome screen; conditions: Compound concentration 1.0 uM
[7] = target: C-X-C chemokine receptor type 5 (Homo sapiens) (UniProt P32302); test: RLU of CXCR5 at 1.0 µM in the […] PRESTO-Tango GPCRome screen; conditions: Compound concentration 1.0 uM
[8] = target: G-protein coupled bile acid receptor 1 (Homo sapiens) (UniProt Q8TDU6); test: RLU of GPBA at 1.0 µM in the […] PRESTO-Tango GPCRome screen; conditions: Compound concentration 1.0 uM
[9] = target: Neuropeptide Y receptor type 5 (Homo sapiens) (UniProt Q15761); test: RLU of NPY5R at 1.0 µM in the […] PRESTO-Tango GPCRome screen; conditions: Compound concentration 1.0 uM
[10] = target: Follicle-stimulating hormone receptor (Homo sapiens) (UniProt P23945); test: RLU of FSHR at 1.0 µM in the […] PRESTO-Tango GPCRome screen; conditions: Compound concentration 1.0 uM
[11] = target: Adhesion G-protein coupled receptor D1 (Homo sapiens) (UniProt Q6QNK2); test: RLU of GPR133 at 1.0 µM in the […] PRESTO-Tango GPCRome screen; conditions: Compound concentration 1.0 uM
[12] = target: P2Y purinoceptor 11 (Homo sapiens) (UniProt Q96G91); test: RLU of P2RY11 at 1.0 µM in the […] PRESTO-Tango GPCRome screen; conditions: Compound concentration 1.0 uM
[13] = target: Prolactin-releasing peptide receptor (Homo sapiens) (UniProt P49683); test: RLU of PRRP at 1.0 µM in the […] PRESTO-Tango GPCRome screen; conditions: Compound concentration 1.0 uM
[14] = target: Sphingosine 1-phosphate receptor 1 (Homo sapiens) (UniProt P21453); test: RLU of S1PR1 at 1.0 µM in the […] PRESTO-Tango GPCRome screen; conditions: Compound concentration 1.0 uM
[15] = target: Sphingosine 1-phosphate receptor 3 (Homo sapiens) (UniProt Q99500); test: RLU of S1PR3 at 1.0 µM in the […] PRESTO-Tango GPCRome screen; conditions: Compound concentration 1.0 uM
[16] = target: D(1A) dopamine receptor (Homo sapiens) (UniProt P21728); test: RLU of DRD1 at 1.0 µM in the […] PRESTO-Tango GPCRome screen; conditions: Compound concentration 1.0 uM
[17] = target: Neuromedin-U receptor 2 (Homo sapiens) (UniProt Q9GZQ4); test: RLU of NMUR2 at 1.0 µM in the […] PRESTO-Tango GPCRome screen; conditions: Compound concentration 1.0 uM
[18] = target: Probable G-protein coupled receptor 45 (Homo sapiens) (UniProt Q9Y5Y3); test: RLU of GPR45 at 1.0 µM in the […] PRESTO-Tango GPCRome screen; conditions: Compound concentration 1.0 uM
[19] = target: Gamma-aminobutyric acid type B receptor subunit 1 (Homo sapiens) (UniProt Q9UBS5); test: RLU of GABBR1 at 1.0 µM in the […] PRESTO-Tango GPCRome screen; conditions: Compound concentration 1.0 uM
[20] = target: G-protein coupled receptor 161 (Homo sapiens) (UniProt Q8N6U8); test: RLU of GPR161 at 1.0 µM in the […] PRESTO-Tango GPCRome screen; conditions: Compound concentration 1.0 uM
[21] = target: Mu-type opioid receptor (Homo sapiens) (UniProt P35372); test: RLU of OPRM1 at 1.0 µM in the […] PRESTO-Tango GPCRome screen; conditions: Compound concentration 1.0 uM
[22] = target: Putative P2Y purinoceptor 10 (Homo sapiens) (UniProt O00398); test: RLU of P2RY10 at 1.0 µM in the […] PRESTO-Tango GPCRome screen; conditions: Compound concentration 1.0 uM
[23] = target: Adhesion G protein-coupled receptor F4 (Homo sapiens) (UniProt Q8IZF3); test: RLU of GPR115 at 1.0 µM in the […] PRESTO-Tango GPCRome screen; conditions: Compound concentration 1.0 uM
[24] = target: C-C chemokine receptor type 6 (Homo sapiens) (UniProt P51684); test: RLU of CCR6 at 1.0 µM in the […] PRESTO-Tango GPCRome screen; conditions: Compound concentration 1.0 uM
[25] = target: 5-hydroxytryptamine receptor 1E (Homo sapiens) (UniProt P28566); test: RLU of HTR1E at 1.0 µM in the […] PRESTO-Tango GPCRome screen; conditions: Compound concentration 1.0 uM
[26] = target: Delta-type opioid receptor (Homo sapiens) (UniProt P41143); test: RLU of OPRD1 at 1.0 µM in the […] PRESTO-Tango GPCRome screen; conditions: Compound concentration 1.0 uM
[27] = target: G-protein coupled receptor family C group 5 member D (Homo sapiens) (UniProt Q9NZD1); test: RLU of GPRC5D at 1.0 µM in the […] PRESTO-Tango GPCRome screen; conditions: Compound concentration 1.0 uM
[28] = target: Leukotriene B4 receptor 1 (Homo sapiens, UniProt Q15722); test: IP-One assay (LTB4R), agonist mode at up to 50 µM; format: functional; design: compound concentration < 50 uM
[29] = target: Prosaposin receptor GPR37 (Homo sapiens) (UniProt O15354); test: RLU of GPR37 at 1.0 µM in the […] PRESTO-Tango GPCRome screen; conditions: Compound concentration 1.0 uM
[30] = target: Succinate receptor 1 (Homo sapiens) (UniProt Q9BXA5); test: RLU of SUCNR1 at 1.0 µM in the […] PRESTO-Tango GPCRome screen; conditions: Compound concentration 1.0 uM
[31] = target: 5-hydroxytryptamine receptor 5A (Homo sapiens) (UniProt P47898); test: RLU of HTR5 at 1.0 µM in the […] PRESTO-Tango GPCRome screen; conditions: Compound concentration 1.0 uM
[32] = target: Oxoeicosanoid receptor 1 (Homo sapiens) (UniProt Q8TDS5); test: RLU of OXER1 at 1.0 µM in the […] PRESTO-Tango GPCRome screen; conditions: Compound concentration 1.0 uM
[33] = target: Probable G-protein coupled receptor 149 (Homo sapiens) (UniProt Q86SP6); test: RLU of GPR149 at 1.0 µM in the […] PRESTO-Tango GPCRome screen; conditions: Compound concentration 1.0 uM
[34] = target: Muscarinic acetylcholine receptor M5 (Homo sapiens) (UniProt P08912); test: RLU of CHRM5 at 1.0 µM in the […] PRESTO-Tango GPCRome screen; conditions: Compound concentration 1.0 uM
[35] = target: Adhesion G protein-coupled receptor D2 (Homo sapiens) (UniProt Q7Z7M1); test: RLU of GPR144 at 1.0 µM in the […] PRESTO-Tango GPCRome screen; conditions: Compound concentration 1.0 uM
Chain of Adhesion G protein-coupled receptor D2 (Homo sapiens) (Q7Z7M1 whole entry): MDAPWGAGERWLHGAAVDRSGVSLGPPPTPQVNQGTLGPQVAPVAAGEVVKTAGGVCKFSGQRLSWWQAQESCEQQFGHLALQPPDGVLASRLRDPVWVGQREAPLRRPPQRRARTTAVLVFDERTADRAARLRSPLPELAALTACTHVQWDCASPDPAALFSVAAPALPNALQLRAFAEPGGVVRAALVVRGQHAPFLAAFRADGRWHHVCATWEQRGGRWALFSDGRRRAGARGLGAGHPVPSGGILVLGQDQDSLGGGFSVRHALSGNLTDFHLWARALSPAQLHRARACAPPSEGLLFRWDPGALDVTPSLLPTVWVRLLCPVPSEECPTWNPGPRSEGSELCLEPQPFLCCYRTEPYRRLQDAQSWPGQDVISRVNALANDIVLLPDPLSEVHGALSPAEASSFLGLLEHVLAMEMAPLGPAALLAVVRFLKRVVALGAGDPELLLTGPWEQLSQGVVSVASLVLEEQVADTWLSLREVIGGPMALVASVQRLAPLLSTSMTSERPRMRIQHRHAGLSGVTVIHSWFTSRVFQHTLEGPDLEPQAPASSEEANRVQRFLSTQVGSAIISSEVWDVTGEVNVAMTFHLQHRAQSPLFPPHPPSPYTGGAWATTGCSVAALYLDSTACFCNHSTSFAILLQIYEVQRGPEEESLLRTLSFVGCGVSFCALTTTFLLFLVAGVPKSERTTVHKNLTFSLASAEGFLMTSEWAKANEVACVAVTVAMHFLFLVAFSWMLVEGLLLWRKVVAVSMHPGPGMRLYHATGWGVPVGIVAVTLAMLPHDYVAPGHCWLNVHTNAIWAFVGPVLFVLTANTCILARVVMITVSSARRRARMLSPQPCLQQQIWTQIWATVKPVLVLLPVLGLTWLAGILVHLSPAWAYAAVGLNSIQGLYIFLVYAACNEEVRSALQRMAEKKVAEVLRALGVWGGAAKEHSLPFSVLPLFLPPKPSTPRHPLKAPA

Chain of Hydroxycarboxylic acid receptor 2 (Homo sapiens) (Q8TDS4 whole entry): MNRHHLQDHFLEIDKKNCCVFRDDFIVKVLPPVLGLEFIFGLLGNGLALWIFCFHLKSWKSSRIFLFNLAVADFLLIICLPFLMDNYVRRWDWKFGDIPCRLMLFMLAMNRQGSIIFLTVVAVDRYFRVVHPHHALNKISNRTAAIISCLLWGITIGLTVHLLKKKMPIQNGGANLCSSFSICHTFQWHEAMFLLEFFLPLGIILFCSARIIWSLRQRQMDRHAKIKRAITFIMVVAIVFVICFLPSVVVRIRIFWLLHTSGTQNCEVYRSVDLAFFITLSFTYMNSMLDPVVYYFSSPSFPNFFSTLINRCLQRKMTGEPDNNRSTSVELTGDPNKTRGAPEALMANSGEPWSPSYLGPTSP
Chain of Follicle-stimulating hormone receptor (Homo sapiens) (P23945 whole entry): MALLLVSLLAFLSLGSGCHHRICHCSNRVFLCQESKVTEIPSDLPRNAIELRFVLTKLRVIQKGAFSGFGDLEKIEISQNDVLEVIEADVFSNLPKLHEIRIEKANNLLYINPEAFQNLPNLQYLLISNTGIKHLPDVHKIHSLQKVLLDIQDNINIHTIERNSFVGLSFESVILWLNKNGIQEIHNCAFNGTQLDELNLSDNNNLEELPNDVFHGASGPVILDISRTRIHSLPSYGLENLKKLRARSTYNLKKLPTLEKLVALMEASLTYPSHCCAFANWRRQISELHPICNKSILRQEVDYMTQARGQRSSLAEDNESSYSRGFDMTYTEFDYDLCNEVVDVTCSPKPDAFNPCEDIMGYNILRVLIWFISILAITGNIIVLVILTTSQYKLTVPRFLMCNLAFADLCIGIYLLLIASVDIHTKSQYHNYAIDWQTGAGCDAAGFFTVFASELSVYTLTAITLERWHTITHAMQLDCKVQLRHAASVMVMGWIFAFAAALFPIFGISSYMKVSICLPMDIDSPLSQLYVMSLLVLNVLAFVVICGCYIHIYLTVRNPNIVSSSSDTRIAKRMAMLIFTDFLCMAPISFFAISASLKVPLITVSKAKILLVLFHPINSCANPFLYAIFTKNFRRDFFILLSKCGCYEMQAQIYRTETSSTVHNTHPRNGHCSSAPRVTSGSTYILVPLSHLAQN
Chain of Mu-type opioid receptor (Homo sapiens) (P35372 whole entry): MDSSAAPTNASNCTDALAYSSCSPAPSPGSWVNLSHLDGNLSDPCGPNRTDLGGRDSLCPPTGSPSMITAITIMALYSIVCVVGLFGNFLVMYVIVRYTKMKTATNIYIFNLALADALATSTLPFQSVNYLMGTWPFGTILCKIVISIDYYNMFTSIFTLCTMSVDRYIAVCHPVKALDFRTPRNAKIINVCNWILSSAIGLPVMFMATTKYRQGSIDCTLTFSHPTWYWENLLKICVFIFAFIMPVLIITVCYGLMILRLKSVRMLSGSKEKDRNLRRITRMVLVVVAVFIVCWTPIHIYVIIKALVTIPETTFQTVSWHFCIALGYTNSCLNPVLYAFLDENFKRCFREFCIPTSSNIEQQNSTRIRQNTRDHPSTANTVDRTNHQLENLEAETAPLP
Chain of C-X-C chemokine receptor type 5 (Homo sapiens) (P32302 whole entry): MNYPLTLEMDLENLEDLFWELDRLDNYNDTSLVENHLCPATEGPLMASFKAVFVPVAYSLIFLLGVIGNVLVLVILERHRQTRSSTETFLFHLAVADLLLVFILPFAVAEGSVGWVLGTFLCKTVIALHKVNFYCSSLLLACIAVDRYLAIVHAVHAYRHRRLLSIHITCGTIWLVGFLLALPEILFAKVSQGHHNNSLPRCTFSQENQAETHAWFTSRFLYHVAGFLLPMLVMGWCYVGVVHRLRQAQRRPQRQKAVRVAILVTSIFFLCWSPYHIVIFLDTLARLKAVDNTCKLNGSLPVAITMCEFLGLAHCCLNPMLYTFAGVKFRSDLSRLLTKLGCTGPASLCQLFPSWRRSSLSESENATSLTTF
Chain of 5-hydroxytryptamine receptor 1F (Homo sapiens) (P30939 whole entry): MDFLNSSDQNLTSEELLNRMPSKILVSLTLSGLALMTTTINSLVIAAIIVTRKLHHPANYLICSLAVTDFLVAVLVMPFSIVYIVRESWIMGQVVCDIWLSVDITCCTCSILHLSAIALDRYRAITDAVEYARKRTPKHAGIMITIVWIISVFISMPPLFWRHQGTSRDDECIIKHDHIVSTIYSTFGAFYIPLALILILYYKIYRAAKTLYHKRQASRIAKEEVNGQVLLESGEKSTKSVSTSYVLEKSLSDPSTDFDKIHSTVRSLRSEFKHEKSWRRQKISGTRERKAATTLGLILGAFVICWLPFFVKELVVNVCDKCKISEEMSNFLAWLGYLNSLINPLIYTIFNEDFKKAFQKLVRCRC
Chain of P2Y purinoceptor 11 (Homo sapiens) (Q96G91 whole entry): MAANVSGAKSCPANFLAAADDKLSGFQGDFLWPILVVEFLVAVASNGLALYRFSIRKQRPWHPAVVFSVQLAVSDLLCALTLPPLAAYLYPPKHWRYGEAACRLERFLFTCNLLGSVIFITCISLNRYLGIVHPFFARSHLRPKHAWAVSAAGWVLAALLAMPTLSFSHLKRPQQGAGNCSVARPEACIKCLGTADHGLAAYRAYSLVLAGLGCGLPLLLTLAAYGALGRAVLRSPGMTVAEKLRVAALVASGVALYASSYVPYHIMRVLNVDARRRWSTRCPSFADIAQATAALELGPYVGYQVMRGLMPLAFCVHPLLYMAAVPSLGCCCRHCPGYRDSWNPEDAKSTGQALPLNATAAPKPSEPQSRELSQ
Chain of Sphingosine 1-phosphate receptor 3 (Homo sapiens) (Q99500 whole entry): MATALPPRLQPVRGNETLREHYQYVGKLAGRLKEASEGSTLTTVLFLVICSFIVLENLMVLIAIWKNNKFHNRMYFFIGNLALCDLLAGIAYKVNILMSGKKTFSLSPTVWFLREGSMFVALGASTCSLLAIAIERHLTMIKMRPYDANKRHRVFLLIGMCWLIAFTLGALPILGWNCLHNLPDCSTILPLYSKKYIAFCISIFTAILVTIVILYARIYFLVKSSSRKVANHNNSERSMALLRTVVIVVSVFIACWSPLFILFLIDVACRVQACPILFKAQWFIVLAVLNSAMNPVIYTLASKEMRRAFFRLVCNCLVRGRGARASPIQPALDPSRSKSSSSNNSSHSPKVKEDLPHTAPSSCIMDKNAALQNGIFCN
Chain of Alpha-2C adrenergic receptor (Homo sapiens) (P18825 whole entry): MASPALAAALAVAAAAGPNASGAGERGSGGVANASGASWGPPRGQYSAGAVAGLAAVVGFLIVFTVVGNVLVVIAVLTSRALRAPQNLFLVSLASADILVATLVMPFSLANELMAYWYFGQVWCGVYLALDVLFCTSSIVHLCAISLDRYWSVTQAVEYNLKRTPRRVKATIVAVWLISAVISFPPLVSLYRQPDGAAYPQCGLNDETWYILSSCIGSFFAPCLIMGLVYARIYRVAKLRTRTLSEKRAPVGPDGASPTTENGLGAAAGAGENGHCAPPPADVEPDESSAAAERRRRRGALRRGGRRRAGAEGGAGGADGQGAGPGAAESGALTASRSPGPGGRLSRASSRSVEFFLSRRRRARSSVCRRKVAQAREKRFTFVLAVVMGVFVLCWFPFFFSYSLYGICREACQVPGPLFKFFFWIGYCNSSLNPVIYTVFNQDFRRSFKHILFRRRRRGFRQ
Chain of Prolactin-releasing peptide receptor (Homo sapiens) (P49683 whole entry): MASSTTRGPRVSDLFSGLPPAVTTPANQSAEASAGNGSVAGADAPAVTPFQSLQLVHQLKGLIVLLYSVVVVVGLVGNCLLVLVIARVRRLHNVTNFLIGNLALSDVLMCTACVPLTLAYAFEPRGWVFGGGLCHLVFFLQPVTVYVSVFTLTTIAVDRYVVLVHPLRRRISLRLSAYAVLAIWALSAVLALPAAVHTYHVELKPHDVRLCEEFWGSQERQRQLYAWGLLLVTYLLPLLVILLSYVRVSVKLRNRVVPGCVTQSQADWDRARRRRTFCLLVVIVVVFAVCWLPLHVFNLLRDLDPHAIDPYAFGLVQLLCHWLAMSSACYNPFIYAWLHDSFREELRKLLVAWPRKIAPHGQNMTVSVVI

CCCCC(=O)N1CC2(C1)CN(c1ccccc1-c1nnn[nH]1)C2
RLU [1]: 1630
RLU [2]: -133
RLU [3]: 12100
RLU [4]: -5970
RLU [5]: -3470
RLU [6]: 937
RLU [7]: -793
RLU [8]: 275
RLU [9]: -14500
RLU [10]: -865
RLU [11]: -2660
RLU [12]: -216
RLU [13]: 4140
RLU [14]: 11000
RLU [15]: -1650
RLU [16]: 1630
RLU [17]: 710
RLU [18]: 963
RLU [19]: 3390
RLU [20]: -2640
RLU [21]: 3970
RLU [22]: -82.4
RLU [23]: -283
RLU [24]: -2060
RLU [25]: -638
RLU [26]: 1290
RLU [27]: 1.74
EC50 [28]: > 50 µM (not active)
RLU [29]: -1510
RLU [30]: 1540
RLU [31]: -1880
RLU [32]: -153
RLU [33]: -2140
RLU [34]: 7390
RLU [35]: 917
